{"source": "paper PMC4503722", "about": "“Novel Phenotypic Outcomes Identified for a Public Collection of Approved Drugs from a Publicly Accessible Panel of Assays” (PLoS ONE, 2015)", "key": {"hKDR": {"biological_target": "T1, hKDR (Homo sapiens, UniProt P35968)", "T1 construct": "purchased Cerep (LANCE kinase assay platform, contract assay)", "T1 sequence (P35968 20-1356)": "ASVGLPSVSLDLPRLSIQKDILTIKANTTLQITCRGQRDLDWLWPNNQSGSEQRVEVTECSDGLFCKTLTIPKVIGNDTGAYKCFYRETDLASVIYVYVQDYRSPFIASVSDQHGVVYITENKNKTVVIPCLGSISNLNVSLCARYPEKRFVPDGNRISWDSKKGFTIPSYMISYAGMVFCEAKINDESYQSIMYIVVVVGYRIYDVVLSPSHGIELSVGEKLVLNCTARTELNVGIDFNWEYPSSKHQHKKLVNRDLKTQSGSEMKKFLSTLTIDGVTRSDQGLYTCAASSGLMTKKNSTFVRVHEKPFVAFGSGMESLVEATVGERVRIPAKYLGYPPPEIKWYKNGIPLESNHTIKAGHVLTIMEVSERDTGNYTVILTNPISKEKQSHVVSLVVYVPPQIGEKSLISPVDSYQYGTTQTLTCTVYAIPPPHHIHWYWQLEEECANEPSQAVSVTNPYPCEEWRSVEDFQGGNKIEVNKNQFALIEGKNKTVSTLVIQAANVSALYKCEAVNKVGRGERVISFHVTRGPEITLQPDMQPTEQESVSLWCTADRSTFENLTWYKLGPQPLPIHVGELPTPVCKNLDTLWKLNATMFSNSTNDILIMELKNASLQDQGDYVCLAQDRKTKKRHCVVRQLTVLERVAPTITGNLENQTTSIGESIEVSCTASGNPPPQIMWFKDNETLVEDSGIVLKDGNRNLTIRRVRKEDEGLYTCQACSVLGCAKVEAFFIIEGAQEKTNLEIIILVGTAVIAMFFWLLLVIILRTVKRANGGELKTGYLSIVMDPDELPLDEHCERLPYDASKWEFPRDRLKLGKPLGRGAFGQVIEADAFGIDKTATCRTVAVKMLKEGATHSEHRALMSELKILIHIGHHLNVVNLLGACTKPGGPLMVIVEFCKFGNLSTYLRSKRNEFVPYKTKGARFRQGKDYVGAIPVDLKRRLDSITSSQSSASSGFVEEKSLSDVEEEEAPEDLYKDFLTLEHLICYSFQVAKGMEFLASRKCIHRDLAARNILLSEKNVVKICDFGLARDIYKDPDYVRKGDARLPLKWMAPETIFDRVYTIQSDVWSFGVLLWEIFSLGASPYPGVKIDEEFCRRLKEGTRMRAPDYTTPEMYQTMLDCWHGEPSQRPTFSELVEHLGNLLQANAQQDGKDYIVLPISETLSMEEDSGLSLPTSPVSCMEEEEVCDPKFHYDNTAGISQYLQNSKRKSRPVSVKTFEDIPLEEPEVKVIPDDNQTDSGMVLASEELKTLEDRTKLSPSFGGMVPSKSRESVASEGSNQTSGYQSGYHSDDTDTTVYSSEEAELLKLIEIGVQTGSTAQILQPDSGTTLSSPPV", "experiment": "Cerep LANCE kinase assay hKDR (S1 assay 32)", "format": "biochemical", "conditions": "kinase assay; read-out: KDR"}, "[1]": {"test_system": "endothelial tube formation in co-cultures of ECFCs and ADSCs treated with VEGF", "experiment": "cells", "format": "cell-based, human", "conditions": "Homo sapiens"}, "hGSK3b": {"biological_target": "T2, hGSK3b (Homo sapiens, UniProt P49841)", "T2 construct": "purchased Cerep (LANCE kinase assay platform, contract assay)", "T2 sequence (P49841 whole entry)": "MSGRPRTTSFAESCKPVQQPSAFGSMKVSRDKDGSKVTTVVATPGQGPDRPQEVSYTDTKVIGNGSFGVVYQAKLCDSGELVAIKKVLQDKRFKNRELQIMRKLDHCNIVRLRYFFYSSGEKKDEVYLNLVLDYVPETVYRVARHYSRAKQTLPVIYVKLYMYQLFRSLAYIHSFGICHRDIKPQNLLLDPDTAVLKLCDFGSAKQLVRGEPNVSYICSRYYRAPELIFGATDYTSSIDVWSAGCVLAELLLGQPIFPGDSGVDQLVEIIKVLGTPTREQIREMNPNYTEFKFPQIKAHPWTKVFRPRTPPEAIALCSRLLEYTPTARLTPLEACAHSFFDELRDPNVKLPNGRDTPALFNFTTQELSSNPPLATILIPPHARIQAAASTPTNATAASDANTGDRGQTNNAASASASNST", "experiment": "Cerep LANCE kinase assay hGSK3b (S1 assay 34)", "format": "biochemical", "conditions": "kinase assay; read-out: GSK3b"}, "[2]": {"test_system": "nuclear β-catenin in C2C12 cells", "experiment": "cells", "format": "cell-based", "conditions": "Mus musculus, C2C12, read-out: Wnt pot. EC50"}, "NCI-H716 cells": {"test_system": "NCI-H716 cells", "experiment": "cells", "format": "cell-based, Human", "conditions": "Homo sapiens, NCI-H716, read-out: GLP1 sec. EC50"}, "SW480": {"test_system": "SW480", "experiment": "cells", "format": "cell-based", "conditions": "Homo sapiens"}, "RKO": {"test_system": "RKO", "experiment": "cells", "format": "cell-based", "conditions": "Homo sapiens, RKO"}, "hJAK2": {"biological_target": "T3, hJAK2 (Homo sapiens, UniProt O60674)", "T3 construct": "purchased Cerep (LANCE kinase assay platform, contract assay)", "T3 sequence (O60674 whole entry)": "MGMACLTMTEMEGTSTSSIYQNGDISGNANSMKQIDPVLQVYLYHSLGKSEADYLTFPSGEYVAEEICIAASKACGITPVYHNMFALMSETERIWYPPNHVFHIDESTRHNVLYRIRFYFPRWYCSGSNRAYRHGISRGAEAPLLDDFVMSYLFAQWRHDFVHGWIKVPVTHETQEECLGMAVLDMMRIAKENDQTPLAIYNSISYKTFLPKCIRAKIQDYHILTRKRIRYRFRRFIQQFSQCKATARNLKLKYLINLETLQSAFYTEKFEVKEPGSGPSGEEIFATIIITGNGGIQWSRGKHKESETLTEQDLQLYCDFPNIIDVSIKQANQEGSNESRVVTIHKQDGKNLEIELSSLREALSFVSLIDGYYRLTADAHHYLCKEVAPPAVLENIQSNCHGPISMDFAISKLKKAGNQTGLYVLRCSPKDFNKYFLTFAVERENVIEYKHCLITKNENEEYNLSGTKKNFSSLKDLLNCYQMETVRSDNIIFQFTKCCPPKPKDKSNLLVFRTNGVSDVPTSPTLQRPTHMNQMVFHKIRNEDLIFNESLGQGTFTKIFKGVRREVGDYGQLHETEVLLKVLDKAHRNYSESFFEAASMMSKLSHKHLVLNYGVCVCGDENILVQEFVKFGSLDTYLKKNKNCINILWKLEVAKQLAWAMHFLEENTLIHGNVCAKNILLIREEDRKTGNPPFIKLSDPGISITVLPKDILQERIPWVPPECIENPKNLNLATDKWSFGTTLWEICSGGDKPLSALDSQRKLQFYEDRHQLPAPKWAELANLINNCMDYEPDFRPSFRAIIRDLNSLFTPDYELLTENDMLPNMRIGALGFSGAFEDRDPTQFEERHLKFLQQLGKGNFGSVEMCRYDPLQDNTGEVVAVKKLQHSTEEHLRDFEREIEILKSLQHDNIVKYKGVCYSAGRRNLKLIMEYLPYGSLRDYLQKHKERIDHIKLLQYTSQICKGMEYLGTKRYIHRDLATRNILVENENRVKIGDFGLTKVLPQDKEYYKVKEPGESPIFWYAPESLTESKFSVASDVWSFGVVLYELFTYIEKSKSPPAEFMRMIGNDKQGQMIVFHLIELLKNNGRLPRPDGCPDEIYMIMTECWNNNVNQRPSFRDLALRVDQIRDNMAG", "experiment": "Cerep LANCE kinase assay hJAK2 (S1 assay 33)", "format": "biochemical", "conditions": "kinase assay; read-out: JAK2"}, "Colo320": {"test_system": "Colo320", "experiment": "cells", "format": "cell-based", "conditions": "Homo sapiens"}, "hp70S6K1 (RPS6KB1)": {"biological_target": "T4, hp70S6K1 (RPS6KB1) (Homo sapiens, UniProt P23443)", "T4 construct": "purchased Cerep (LANCE kinase assay platform, contract assay)", "T4 sequence (P23443 whole entry)": "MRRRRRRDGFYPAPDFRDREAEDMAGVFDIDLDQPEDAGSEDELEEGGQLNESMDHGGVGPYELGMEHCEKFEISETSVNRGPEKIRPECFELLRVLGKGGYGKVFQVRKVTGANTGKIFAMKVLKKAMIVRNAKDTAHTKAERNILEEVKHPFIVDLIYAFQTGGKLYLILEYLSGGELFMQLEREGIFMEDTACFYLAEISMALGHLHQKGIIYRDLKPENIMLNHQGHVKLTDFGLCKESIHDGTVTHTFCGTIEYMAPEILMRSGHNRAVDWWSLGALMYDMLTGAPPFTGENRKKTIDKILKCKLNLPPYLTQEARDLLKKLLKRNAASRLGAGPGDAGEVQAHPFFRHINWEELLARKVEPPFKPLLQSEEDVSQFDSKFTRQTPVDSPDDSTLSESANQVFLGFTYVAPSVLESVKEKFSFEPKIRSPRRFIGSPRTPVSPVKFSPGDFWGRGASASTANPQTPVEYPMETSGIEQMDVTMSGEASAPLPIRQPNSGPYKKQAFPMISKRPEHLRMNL", "experiment": "Cerep LANCE kinase assay hp70S6K1 (S1 assay 31)", "format": "biochemical", "conditions": "kinase assay; read-out: p70S6K1"}, "HT-29": {"test_system": "HT-29", "experiment": "cells", "format": "cell-based", "conditions": "Homo sapiens"}, "INS-1E cells": {"test_system": "INS-1E cells", "experiment": "cells", "format": "cell-based, rat", "conditions": "Rattus norvegicus, INS-1E, read-out: Ins. sec. EC50"}, "HeLa cells": {"test_system": "HeLa cells", "experiment": "cells", "format": "cell-based", "conditions": "Homo sapiens, HeLa, read-out: CellCycle G2/M"}, "SNU-C1": {"test_system": "SNU-C1", "experiment": "cells", "format": "cell-based", "conditions": "Homo sapiens"}, "hFLT3": {"biological_target": "T5, hFLT3 (Homo sapiens, UniProt P36888)", "T5 construct": "purchased Cerep (LANCE kinase assay platform, contract assay)", "T5 sequence (P36888 27-993)": "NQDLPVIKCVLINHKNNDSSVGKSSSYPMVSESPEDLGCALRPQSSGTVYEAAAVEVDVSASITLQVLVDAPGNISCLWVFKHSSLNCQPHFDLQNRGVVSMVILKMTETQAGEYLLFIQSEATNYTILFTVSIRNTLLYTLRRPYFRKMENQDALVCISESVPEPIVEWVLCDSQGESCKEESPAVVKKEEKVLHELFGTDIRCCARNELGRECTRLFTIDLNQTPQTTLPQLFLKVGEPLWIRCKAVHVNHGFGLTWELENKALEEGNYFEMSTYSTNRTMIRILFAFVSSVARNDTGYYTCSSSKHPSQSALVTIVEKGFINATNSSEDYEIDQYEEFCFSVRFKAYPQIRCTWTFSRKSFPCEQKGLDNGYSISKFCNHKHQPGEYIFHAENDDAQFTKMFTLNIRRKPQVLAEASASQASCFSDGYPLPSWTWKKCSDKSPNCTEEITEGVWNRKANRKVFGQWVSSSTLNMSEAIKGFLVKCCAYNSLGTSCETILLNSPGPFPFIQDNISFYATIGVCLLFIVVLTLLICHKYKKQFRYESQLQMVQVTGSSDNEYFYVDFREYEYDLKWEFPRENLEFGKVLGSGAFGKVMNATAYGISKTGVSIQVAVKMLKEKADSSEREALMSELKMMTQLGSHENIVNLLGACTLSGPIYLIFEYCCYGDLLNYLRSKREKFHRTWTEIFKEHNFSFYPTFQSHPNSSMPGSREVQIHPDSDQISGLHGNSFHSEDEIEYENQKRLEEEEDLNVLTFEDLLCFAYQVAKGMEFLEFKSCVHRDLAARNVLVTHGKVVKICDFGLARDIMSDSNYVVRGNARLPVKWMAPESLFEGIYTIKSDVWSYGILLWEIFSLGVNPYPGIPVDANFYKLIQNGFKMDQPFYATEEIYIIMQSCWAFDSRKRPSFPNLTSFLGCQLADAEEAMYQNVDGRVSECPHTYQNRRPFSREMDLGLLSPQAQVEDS", "experiment": "Cerep LANCE kinase assay hFLT3 (S1 assay 35)", "format": "biochemical", "conditions": "kinase assay; read-out: FLT3"}, "[3]": {"test_system": "HCT116 cells treated with a GSK3β inhibitor", "experiment": "cells", "format": "cell-based", "conditions": "Homo sapiens"}, "DLD-1": {"test_system": "DLD-1", "experiment": "cells", "format": "cell-based", "conditions": "Homo sapiens"}, "HCT116": {"test_system": "HCT116", "experiment": "cells", "format": "cell-based", "conditions": "Homo sapiens"}, "[4]": {"test_system": "ECFC/ADSC co-culture cell nuclei number", "conditions": "human"}, "[5]": {"test_system": "panel of 7 colon cancer cell lines", "experiment": "KRAS/Wnt synthetic lethal module: selectivity ratios across the colon cancer cell line panel (sub-modules)", "format": "cell-based"}}, "note": "Read-outs that look alike come from different tables or passages of the source."}
{"compound": "COCc1c(C(C)C)nc(C(C)C)c(/C=C/[C@@H](O)C[C@@H](O)CC(=O)O)c1-c1ccc(F)cc1", "note": "[cerivastatin, reference compound]", "values": [{"measurement": "IC50", "setting": "hKDR", "value": "> 20000", "unit": "nM"}, {"measurement": "IC50", "setting": "[1]; read-out: Anti-Angio IC50", "value": 89, "unit": "nM"}, {"measurement": "IC50", "setting": "[1]; read-out: Anti-Angiogenesis", "value": 89.4, "unit": "nM"}, {"measurement": "IC50", "setting": "hGSK3b", "value": "> 20000", "unit": "nM"}, {"measurement": "EC50", "setting": "[2]", "value": 19900, "unit": "nM"}, {"measurement": "EC50", "setting": "NCI-H716 cells", "value": "> 10000", "unit": "nM"}, {"measurement": "IC50", "setting": "SW480; SW480, 72 h, read-out: SW480 viab. IC50", "value": 140, "unit": "nM"}, {"measurement": "IC50", "setting": "SW480; SW480, read-out: Basal_Viability ATP SW480", "value": 143, "unit": "nM"}, {"measurement": "IC50", "setting": "RKO; 72 h, read-out: RKO viab. IC50", "value": 1000, "unit": "nM"}, {"measurement": "IC50", "setting": "RKO; read-out: Basal_Viability ATP RKO", "value": 1010, "unit": "nM"}, {"measurement": "IC50", "setting": "hJAK2", "value": "> 20000", "unit": "nM"}, {"measurement": "IC50", "setting": "Colo320; COLO 320, 72 h, read-out: Colo320 viab. IC50", "value": 1900, "unit": "nM"}, {"measurement": "IC50", "setting": "Colo320; COLO 320, read-out: Basal_Viability ATP Colo 320", "value": 1920, "unit": "nM"}, {"measurement": "IC50", "setting": "hp70S6K1 (RPS6KB1)", "value": "> 20000", "unit": "nM"}, {"measurement": "IC50", "setting": "HT-29; HT-29, 72 h, read-out: HT-29 viab. IC50", "value": 1200, "unit": "nM"}, {"measurement": "IC50", "setting": "HT-29; HT-29, read-out: Basal_Viability ATP HT-29", "value": 1210, "unit": "nM"}, {"measurement": "EC50", "setting": "INS-1E cells", "value": "> 10000", "unit": "nM"}, {"measurement": "EC50", "setting": "HeLa cells", "value": "> 10000", "unit": "nM"}, {"measurement": "IC50", "setting": "SNU-C1; SNU-C1, 72 h, read-out: SNU-C1 viab. IC50", "value": 1900, "unit": "nM"}, {"measurement": "IC50", "setting": "SNU-C1; SNU-C1, read-out: Basal_Viability ATP SNU-C1", "value": 1870, "unit": "nM"}, {"measurement": "IC50", "setting": "hFLT3", "value": "> 20000", "unit": "nM"}, {"measurement": "IC50", "setting": "[3]; HCT-116, 72 h, read-out: HCT-116 (GSK3β) viab. IC50", "value": 53, "unit": "nM"}, {"measurement": "IC50", "setting": "[3]; HCT-116, read-out: GSK3b inh pretreated_Viability ATP HCT116", "value": 52.9, "unit": "nM"}, {"measurement": "IC50", "setting": "DLD-1; DLD-1, 72 h, read-out: DLD-1 viab. IC50", "value": 2500, "unit": "nM"}, {"measurement": "IC50", "setting": "DLD-1; DLD-1, read-out: Basal_Viability ATP DLD-1", "value": 2510, "unit": "nM"}, {"measurement": "IC50", "setting": "HCT116; HCT-116, 72 h, read-out: HCT-116 viab. IC50", "value": 240, "unit": "nM"}, {"measurement": "IC50", "setting": "HCT116; HCT-116, read-out: Basal_Viability ATP HCT116", "value": 240, "unit": "nM"}, {"measurement": "cytotoxicity IC50 relative to IC50 for inhibition of endothelial cord formation", "setting": "[4]", "value": "2–3 fold"}, {"measurement": "fold potency difference KRAS mutant lines SW480 and HCT116 vs. KRAS wild-type lines Colo320 and SNU-C1", "setting": "[5]", "value": "5–10 fold"}]}
